Test results as given in paper PMC4091765 (Methods in molecular biology (Clifton, N.J.), 2013).
One block for each molecule: values may come before it.

How the values were obtained:
PDE9A = PDE9A (Homo sapiens, UniProt O76083); assay: PDE assay using isothermal titration calorimetry; details: ITC; for Ki: compound as inhibitor of PDE9; for Km: compound as substrate
PDE2A = details: ITC, compound as substrate; cited from earlier work
PDE1A = details: ITC, compound as substrate; cited from earlier work
PDE4D = details: ITC, compound as substrate; n.h. = not hydrolyzed; cited from earlier work
PDE10 = details: ITC, compound as substrate; cited from earlier work
PDE6 = details: ITC, compound as substrate, cited from earlier work
PDE1C = details: ITC, compound as substrate; cited from earlier work
PDE1B = details: ITC, compound as substrate; cited from earlier work
PDE5 = details: ITC, cited from earlier work
PDE8A = PDE8A (Homo sapiens, UniProt O60658); assay: PDE assay using isothermal titration calorimetry; details: ITC, compound as substrate; n.h. = not hydrolyzed
Chain of PDE8A (O60658 whole entry, species assumed): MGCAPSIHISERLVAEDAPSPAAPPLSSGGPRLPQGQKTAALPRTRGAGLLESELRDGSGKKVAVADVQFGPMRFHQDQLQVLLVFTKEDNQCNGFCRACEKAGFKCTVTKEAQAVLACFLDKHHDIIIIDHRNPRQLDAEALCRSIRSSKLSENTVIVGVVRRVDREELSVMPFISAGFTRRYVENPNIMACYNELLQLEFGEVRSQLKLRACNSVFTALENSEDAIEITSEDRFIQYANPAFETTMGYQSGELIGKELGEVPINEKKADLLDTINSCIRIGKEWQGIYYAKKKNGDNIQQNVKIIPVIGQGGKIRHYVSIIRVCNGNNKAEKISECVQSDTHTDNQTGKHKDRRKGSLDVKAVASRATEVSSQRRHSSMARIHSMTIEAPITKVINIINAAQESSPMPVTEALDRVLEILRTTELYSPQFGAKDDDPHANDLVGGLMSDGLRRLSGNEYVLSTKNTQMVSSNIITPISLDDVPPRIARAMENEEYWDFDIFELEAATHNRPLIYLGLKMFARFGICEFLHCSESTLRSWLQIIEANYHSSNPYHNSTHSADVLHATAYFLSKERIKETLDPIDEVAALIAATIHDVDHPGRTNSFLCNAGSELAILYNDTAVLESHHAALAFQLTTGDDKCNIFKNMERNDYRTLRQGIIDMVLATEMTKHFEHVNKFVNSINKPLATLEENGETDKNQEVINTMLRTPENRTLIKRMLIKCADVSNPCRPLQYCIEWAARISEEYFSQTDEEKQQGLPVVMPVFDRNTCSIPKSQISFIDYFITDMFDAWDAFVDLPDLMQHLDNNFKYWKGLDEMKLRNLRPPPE

PDEs = assay: ITC PDE assays, summary over the PDE panel; details: result in words

Chain of PDE9A (O76083 whole entry, species assumed): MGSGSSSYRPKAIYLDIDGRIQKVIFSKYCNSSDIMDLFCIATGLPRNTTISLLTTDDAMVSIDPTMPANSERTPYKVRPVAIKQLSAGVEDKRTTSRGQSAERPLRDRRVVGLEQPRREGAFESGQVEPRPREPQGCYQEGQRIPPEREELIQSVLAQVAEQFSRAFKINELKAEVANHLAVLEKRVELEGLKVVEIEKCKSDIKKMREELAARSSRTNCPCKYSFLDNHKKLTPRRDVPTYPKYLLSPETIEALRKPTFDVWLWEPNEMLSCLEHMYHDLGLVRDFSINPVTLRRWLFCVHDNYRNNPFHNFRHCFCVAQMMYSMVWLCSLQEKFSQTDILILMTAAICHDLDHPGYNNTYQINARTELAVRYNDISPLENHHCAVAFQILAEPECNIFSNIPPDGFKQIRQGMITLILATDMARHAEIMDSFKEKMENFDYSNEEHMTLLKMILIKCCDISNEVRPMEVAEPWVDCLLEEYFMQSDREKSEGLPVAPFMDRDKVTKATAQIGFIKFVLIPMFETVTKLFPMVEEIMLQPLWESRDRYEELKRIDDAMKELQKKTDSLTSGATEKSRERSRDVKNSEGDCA

Ki (PDE9A): 1290 nM
Compound: Nc1nc2c(nc(Sc3ccc(Cl)cc3)n2C2O[C@@H]3COP(=O)(O)O[C@H]3[C@H]2O)c(=O)[nH]1 (stereo in doubt) [8-pCPT-cGMP]

Km (PDE9A): 5.99 µM
Compound: Nc1ncnc2c1nc(Br)n2[C@@H]1O[C@@H]2COP(=O)(O)O[C@H]2[C@H]1O [8Br-cAMP]

Km (PDE9A): 0.2 µM
Km (PDE8A): n.h.
Vmax (PDE8A): n.h.
Compound: Nc1nc2c(ncn2[C@@H]2O[C@@H]3COP(=O)(O)O[C@H]3[C@H]2O)c(=O)[nH]1 [cGMP]
Km (PDE2A): 31 µM
Vmax (PDE2A): 176 ± 31 µM/min/mg
Km (PDE1A): 8.2 µM
Vmax (PDE1A): 20 ± 1.0 µM/min/mg
Km (PDE4D): n.h.
Vmax (PDE4D): n.h.
Km (PDE10): 1.1 µM
Vmax (PDE10): 1.6 ± 0.11 µM/min/mg
Vmax (PDE6; Vmax normalized, cGMP as substrate = 1): 1.0 +/− 1.1
Km (PDE6): 10 µM
Km (PDE1C): 4.6 µM
Vmax (PDE1C): 1.4 ± 1.0 µM/min/mg
Km (PDE1B): 5.4 µM
Vmax (PDE1B): 2.6 ± 0.7 µM/min/mg
Km (PDE5; compound as substrate): 2 µM

Compound: CO[C@@H]1[C@@H]2OP(=O)(O)OC[C@H]2O[C@H]1n1c(Sc2ccc(Cl)cc2)nc2c(N)ncnc21 [8-pCPT-2-0-Me cAMP]
substrate property for PDE5 (PDE5; result in words): rather good substrate for PDE5

Ki (PDE9A): 770 nM
Km (PDE8A): 0.55 µM
Compound: Nc1nc2c(nc(Br)n2[C@@H]2O[C@@H]3COP(=O)(O)O[C@H]3[C@H]2O)c(=O)[nH]1 [8-Br-cGMP]

Compound: COC1C2OP(O)(=S)OCC2OC1n1c(Sc2ccc(Cl)cc2)nc2c(N)ncnc21 (stereo not shown) [Sp-8-pCPT-2-0-Me-cAMPS]
substrate property for PDEs (PDEs; any PDE of the panel): not a substrate for any PDE
inhibition of PDEs (PDEs; several PDEs of the panel): quite a good inhibitor of several of them
